The values below come from publication PMC4286326 (Journal of the American Chemical Society, 2014).

SMILES strings stand for the structures. pEC50: −log10 of the molar value. Where “and” joins values, the source holds several entries; their conditions need not be identical. Identical values can stand only once.

The target in assay [1] is S31N mutant of M2 (A/M2) (Influenza A virus, UniProt P0DOF5, S31N). In kind it is biochemical. As to conditions: 100 µM.
Assay [2] deals with M2-S31N-expressing A/WSN/33. The assay is classed as cell-based, influenza A virus. The following applies: read-out: A/WSN/33 (S31N) EC50.

Consider `Brc1ccc(CNC23CC4CC(CC(C4)C2)C3)s1` [Compound 11, N-[(5-bromothiophen-2-yl)methyl]adamantan-1-amine], for which, in assay [1], the “% S31N inhibition” value was 76% and 76/N.T. %. Moreover, the pEC50 in assay [2] is 5.74.
For the compound `NC12CC3CC(CC(C3)C1)C2` [Compound 1, amantadine, reference compound], the “% S31N inhibition” value in assay [1] turned out to be 36%. Also, the pEC50 in assay [2] was 4.65.
